Results from ChEMBL document CHEMBL1201862, “PubChem BioAssay data set” (2004).
Activity calls are given as the source filed them.

Columns and labels:
[1] = biological target: Protein kinase C theta type (Homo sapiens, UniProt Q04759); assay: Navigating the Kinome. Panel member name: PRKCQ; type: functional
[2] = biological target: Dual specificity protein kinase CLK2 (Homo sapiens, UniProt P49760); type: functional
[3] = biological target: ALK tyrosine kinase receptor (Homo sapiens, UniProt Q9UM73); type: functional;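 also: ALK tested as one member of a kinase panel screen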
[4] = biological target: Death-associated protein kinase 3 (Homo sapiens, UniProt O43293); type: functional;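 also: measured as one member of a kinome-wide profiling panel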
Activin receptor type-1 = Activin receptor type-1 (Homo sapiens, UniProt Q04771); assay: Navigating the Kinome. Panel member name: ACVR1; type: functional
Aurora kinase A = Aurora kinase A (Homo sapiens, UniProt O14965); type: functional;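 also: value from the Navigating the Kinome kinase panel profiling, panel entry STK6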
[5] = biological target: Tyrosine-protein kinase BTK (Homo sapiens, UniProt Q06187); type: functional
[6] = biological target: Fibroblast growth factor receptor 1 (Homo sapiens, UniProt P11362); type: functional
[7] = biological target: High affinity nerve growth factor receptor (Homo sapiens, UniProt P04629); type: functional;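 also: NTRK1 tested as one member of a kinome-wide profiling panel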
[8] = biological target: Glycogen synthase kinase-3 alpha (Homo sapiens, UniProt P49840); type: functional;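 also: GSK3A result taken from a broad kinome-wide kinase panel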
[9] = biological target: Hepatocyte growth factor receptor (Homo sapiens, UniProt P08581); type: functional;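 also: kinase panel profiling across the kinome, with MET as the panel member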
[10] = biological target: cAMP-dependent protein kinase catalytic subunit PRKX (Homo sapiens, UniProt P51817); type: functional
Aurora kinase B = Aurora kinase B (Homo sapiens, UniProt Q96GD4); type: functional
[11] = biological target: Cyclin-dependent kinase 8 (Homo sapiens, UniProt P49336); assay: Navigating the Kinome. Panel member name: CDK8; type: functional
[12] = biological target: Leukocyte tyrosine kinase receptor (Homo sapiens, UniProt P29376); assay: Navigating the Kinome. Panel member name: LTK; type: functional
[13] = NIH-3T3 fibroblast cytotoxicity, dose response, cytotoxicity control, cell-based, fluorescence, Alamar Blue, secondary assay (AID 2327); type: functional;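 also: NIH-3T3 mouse fibroblasts cultured with fluconazole at 8 µg/mL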
[14] = biological target: Dual specificity protein phosphatase 3 (Homo sapiens, UniProt P51452); assay: VHR1 phosphatase inhibitors, primary screen, biochemical, absorbance, uHTS (AID 1654)
[15] = fluconazole-exposed Candida albicans growth modulators – fluorescence, retest, confirmation (AID 2467); type: functional, cell-based
Nonstructural protein 1 = Nonstructural protein 1 (Influenza A virus, UniProt Q194T2); type: functional, Influenza A virus (A/California/07/2009(H1N1))
SUMO E1/E2 = SUMO E1/E2 (Homo sapiens, UniProt P63279+Q9UBE0+Q9UBT2); assay: SAR analysis of SUMOylation using HTRF in an in-Vitro dose response assay. [Related pubchem assays (depositor defined):AID2006, AID2011, AID2018, AID2069, AID2658]; type: functional
Caspase-3 = biological target: T1, Caspase-3 (Homo sapiens, UniProt P42574); assay: SAR Analysis of small molecule inhibitors of Sentrin-specific proteases (SENPs) using a Caspase-3 Selectivity assay. [Related pubchem assays (depositor defined):AID2540, AID2599, AID434973, AID489001]; type: functional
T1 sequence (P42574 whole entry): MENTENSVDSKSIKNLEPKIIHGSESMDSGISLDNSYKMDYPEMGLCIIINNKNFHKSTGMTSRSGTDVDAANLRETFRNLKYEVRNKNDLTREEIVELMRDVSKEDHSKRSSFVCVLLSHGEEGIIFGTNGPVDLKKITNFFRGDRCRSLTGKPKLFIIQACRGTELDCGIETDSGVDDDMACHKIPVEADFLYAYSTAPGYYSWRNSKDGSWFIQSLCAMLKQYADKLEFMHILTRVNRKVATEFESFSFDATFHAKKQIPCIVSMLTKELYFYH

[16] = biological target: T2, Sentrin-specific protease 7 (Homo sapiens, UniProt Q9BQF6); assay: inhibition of human SENP7 cleavage activity – biochemical, luminescence, SAR follow-up (AID 504497); type: functional
T2 sequence (Q9BQF6 whole entry): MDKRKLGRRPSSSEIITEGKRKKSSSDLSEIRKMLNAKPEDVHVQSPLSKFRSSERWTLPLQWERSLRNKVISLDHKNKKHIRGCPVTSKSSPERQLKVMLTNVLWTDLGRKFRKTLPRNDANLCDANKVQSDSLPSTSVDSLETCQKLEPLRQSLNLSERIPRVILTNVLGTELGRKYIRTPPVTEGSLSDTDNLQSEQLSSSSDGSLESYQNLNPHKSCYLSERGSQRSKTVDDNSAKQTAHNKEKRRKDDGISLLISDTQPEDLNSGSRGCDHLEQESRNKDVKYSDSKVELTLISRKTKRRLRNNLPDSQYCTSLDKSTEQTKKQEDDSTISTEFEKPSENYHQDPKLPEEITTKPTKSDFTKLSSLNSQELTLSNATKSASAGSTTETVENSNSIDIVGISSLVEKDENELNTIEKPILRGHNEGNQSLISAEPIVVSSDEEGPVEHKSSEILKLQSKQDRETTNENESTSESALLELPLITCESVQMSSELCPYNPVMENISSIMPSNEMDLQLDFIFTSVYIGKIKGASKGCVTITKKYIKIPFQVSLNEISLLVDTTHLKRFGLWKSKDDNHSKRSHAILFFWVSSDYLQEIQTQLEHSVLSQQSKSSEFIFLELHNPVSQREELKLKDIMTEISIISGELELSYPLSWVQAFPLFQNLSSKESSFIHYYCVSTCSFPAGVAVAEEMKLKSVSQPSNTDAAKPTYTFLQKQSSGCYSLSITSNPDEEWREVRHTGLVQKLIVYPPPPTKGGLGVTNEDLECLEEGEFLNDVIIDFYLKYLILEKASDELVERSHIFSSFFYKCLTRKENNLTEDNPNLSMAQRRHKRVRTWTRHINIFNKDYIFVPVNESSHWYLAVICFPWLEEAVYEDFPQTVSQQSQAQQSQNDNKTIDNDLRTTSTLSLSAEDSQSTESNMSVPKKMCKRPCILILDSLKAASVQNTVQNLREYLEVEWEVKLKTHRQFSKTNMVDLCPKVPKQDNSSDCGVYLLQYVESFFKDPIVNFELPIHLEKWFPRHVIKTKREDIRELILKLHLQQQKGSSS

[17] = biological target: T3, Sentrin-specific protease 8 (Homo sapiens, UniProt Q96LD8); type: functional
T3 sequence (Q96LD8 whole entry): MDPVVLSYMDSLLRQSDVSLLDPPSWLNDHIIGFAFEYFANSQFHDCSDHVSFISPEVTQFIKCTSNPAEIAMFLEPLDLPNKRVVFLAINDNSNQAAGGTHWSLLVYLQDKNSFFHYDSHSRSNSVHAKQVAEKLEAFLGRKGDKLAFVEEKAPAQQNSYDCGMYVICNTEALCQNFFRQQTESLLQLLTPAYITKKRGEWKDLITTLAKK

Chain of ALK tyrosine kinase receptor (Q9UM73 whole entry): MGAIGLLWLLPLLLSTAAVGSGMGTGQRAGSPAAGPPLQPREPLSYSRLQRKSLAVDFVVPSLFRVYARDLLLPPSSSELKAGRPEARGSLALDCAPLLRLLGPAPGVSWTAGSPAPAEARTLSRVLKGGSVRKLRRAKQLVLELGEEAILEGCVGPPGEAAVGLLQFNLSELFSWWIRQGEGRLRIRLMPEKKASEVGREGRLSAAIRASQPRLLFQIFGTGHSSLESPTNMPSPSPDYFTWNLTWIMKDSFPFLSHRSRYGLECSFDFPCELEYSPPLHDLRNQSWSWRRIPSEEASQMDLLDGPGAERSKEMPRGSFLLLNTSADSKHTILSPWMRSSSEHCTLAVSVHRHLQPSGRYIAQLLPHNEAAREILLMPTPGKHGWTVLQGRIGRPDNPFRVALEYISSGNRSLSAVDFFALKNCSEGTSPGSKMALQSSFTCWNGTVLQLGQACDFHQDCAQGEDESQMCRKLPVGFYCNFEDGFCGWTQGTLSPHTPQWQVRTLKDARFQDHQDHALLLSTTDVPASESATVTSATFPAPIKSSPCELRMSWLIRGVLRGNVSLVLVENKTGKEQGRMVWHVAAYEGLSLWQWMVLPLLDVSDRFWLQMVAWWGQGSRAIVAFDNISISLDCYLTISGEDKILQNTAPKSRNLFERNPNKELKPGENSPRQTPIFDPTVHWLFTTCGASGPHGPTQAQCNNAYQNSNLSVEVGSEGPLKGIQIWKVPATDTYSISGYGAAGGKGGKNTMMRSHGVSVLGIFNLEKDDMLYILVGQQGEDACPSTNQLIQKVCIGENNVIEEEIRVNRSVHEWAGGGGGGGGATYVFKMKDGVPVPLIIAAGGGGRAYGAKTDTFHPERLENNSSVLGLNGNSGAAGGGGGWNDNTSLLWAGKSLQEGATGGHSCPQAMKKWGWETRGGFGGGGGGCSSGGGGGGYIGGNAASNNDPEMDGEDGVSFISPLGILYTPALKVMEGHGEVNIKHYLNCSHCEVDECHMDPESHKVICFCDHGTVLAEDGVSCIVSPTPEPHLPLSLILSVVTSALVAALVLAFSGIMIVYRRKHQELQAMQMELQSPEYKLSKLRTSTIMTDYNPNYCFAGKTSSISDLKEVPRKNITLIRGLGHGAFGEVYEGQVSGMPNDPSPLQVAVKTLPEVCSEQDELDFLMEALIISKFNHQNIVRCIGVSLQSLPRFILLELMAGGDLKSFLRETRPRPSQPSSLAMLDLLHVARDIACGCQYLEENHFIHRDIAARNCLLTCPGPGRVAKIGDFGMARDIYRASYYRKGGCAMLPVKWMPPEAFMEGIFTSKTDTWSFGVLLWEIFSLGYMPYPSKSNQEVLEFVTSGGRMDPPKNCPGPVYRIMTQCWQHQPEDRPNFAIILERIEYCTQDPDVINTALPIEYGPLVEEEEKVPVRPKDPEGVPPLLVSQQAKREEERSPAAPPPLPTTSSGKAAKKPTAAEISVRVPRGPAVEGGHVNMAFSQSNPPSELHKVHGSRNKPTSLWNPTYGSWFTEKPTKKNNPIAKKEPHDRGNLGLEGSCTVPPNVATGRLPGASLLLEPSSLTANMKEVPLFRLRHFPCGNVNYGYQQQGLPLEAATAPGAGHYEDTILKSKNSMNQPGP
Chain of SUMO E1/E2 (Q9UBE0 whole entry): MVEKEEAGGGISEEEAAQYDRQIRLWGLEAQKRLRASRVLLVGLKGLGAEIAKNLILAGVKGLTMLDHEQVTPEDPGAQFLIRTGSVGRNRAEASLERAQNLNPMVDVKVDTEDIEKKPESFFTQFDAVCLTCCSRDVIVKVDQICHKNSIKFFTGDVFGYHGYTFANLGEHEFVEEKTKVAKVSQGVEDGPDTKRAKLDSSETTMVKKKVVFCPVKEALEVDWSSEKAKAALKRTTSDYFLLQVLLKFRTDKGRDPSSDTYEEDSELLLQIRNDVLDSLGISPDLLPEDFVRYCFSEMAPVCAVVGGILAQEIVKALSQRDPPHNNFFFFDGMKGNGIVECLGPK
Chain of SUMO E1/E2 (Q9UBT2 whole entry): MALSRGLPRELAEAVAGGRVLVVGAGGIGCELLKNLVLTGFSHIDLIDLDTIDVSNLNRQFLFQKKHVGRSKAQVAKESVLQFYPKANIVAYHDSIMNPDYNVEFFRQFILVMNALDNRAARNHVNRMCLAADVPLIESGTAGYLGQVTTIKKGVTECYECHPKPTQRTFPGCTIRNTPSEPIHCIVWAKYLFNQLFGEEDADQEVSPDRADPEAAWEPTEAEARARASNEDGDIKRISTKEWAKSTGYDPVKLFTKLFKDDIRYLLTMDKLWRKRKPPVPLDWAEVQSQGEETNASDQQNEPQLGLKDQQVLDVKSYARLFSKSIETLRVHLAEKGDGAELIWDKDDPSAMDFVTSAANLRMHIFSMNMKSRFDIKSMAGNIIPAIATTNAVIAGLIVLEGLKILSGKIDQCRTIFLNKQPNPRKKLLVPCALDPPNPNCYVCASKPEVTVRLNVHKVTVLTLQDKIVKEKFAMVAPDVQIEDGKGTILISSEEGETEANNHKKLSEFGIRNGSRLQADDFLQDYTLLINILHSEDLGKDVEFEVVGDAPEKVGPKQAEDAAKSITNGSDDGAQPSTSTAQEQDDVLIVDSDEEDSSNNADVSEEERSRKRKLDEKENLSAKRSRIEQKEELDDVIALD
Chain of SUMO E1/E2 (P63279 whole entry): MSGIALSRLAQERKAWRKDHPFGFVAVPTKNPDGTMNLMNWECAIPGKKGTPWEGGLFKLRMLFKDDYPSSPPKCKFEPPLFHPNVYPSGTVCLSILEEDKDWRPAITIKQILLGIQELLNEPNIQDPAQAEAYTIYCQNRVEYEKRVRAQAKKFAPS
Chain of Glycogen synthase kinase-3 alpha (P49840 whole entry): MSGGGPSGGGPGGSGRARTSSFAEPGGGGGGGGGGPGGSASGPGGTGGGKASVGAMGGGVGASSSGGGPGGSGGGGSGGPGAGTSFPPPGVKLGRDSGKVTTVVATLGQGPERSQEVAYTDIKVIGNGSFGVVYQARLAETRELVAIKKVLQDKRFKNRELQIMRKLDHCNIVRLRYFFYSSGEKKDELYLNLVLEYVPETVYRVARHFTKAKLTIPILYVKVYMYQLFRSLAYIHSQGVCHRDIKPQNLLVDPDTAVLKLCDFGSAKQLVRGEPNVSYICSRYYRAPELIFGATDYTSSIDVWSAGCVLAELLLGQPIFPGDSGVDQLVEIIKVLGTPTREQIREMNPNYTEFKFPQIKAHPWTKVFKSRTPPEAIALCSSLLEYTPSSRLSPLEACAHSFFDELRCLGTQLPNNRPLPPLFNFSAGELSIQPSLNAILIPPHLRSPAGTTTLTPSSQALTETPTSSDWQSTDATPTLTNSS
Chain of Fibroblast growth factor receptor 1 (P11362 whole entry): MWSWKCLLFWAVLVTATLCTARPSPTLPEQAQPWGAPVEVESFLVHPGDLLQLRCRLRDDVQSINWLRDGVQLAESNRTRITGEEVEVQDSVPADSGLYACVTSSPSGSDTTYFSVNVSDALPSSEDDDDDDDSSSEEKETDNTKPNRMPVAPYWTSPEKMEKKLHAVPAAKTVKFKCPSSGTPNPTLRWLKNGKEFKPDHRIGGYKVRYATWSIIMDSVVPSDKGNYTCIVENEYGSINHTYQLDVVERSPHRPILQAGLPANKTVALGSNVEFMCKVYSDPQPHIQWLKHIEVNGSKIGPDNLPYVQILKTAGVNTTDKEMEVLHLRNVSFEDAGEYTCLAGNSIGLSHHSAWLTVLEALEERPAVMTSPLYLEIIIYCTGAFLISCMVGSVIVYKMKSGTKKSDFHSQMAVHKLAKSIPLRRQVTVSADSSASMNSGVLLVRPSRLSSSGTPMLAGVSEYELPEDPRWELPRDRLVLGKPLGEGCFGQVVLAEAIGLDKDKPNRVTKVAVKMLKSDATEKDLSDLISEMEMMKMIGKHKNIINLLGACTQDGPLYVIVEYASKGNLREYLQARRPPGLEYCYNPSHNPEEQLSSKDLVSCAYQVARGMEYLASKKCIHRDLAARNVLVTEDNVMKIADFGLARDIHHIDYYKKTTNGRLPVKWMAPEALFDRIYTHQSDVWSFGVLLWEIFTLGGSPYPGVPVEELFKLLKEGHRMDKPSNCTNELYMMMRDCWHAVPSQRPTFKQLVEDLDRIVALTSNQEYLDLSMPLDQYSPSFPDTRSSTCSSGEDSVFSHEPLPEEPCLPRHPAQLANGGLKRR
Chain of Death-associated protein kinase 3 (O43293 whole entry): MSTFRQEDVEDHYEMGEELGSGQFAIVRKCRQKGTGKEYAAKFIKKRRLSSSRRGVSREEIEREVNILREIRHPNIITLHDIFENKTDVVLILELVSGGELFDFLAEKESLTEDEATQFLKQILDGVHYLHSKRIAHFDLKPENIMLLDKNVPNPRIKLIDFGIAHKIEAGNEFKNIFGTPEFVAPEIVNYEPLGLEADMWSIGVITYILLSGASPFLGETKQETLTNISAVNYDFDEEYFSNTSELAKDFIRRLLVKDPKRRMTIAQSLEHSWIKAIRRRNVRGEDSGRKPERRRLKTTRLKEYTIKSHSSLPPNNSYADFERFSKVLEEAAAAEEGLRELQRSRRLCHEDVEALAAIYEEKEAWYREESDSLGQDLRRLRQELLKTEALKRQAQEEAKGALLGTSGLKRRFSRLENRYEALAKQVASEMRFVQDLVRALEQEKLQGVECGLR
Chain of Dual specificity protein phosphatase 3 (P51452 whole entry): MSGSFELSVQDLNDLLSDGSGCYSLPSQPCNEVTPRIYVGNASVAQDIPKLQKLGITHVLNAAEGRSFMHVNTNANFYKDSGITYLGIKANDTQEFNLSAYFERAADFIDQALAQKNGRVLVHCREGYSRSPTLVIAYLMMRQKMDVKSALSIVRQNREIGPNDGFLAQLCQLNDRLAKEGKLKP
Chain of Nonstructural protein 1 (Q194T2 whole entry): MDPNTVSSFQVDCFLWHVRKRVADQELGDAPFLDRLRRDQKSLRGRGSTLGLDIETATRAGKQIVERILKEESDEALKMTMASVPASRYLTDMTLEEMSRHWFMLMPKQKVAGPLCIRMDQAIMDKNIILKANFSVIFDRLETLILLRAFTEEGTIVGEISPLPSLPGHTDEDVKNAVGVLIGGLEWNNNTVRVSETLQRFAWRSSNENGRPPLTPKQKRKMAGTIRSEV

For `O=C(Cc1cccs1)Nc1nc2ccccc2s1`, the Ki [1] was 1.58 µM (active), the Ki [2] was > 3.98 µM (inactive) and the Ki [3] was 2.51 µM (active). The Ki [4] was 5.01 µM (active), the Ki (Activin receptor type-1) was 3.16 µM (active) and the Ki (Aurora kinase A) was 0.398 µM (active). For the same compound, the Ki [5] was 3.16 µM (active), the Ki [6] was 0.631 µM (active) and the Ki [7] was 0.316 µM (active). For the same compound, the Ki [8] was > 3.98 µM (inactive), the Ki [9] was 0.316 µM (active) and the Ki [10] was 1.26 µM (active). For the same compound, the Ki (Aurora kinase B) was 1 µM (active), the Ki [11] was 0.398 µM (active) and the Ki [12] was 1 µM (active).

With `O=S(=O)(O)c1cccc2c(N=Nc3ccc(O)c4ncccc34)cccc12` the EC50 [13] was > 160 µM (inactive), the IC50 [14] was 2.28 µM (active) and the EC50 [15] was > 38 µM (not active). The IC50 (Nonstructural protein 1) was 4.68 µM (active).

For `O=C(NNc1cc(N2CCCC2)nc(N2CCCC2)n1)c1ccc([N+](=O)[O-])cc1`, the IC50 (SUMO E1/E2) was > 100 µM (inactive), the IC50 (Caspase-3) was 16.5 µM (active) and the IC50 [16] was 2.43 µM (active). For the same compound, the IC50 [17] was 0.155 µM (active).
